One block for each compound: values may come before it.
Experiments:
[1] = Solubility; type: physicochemical
[2] = biological target: human CYP 2C9 (Homo sapiens, UniProt P11712); assay: CYP inhibition assay, pooled human liver microsomes, diclofenac substrate; type: in vitro ADME
[3] = biological target: human CYP 3A4 (Homo sapiens, UniProt P08684); assay: CYP inhibition assay, pooled human liver microsomes, midazolam substrate; type: in vitro ADME
[4] = Pharmacokinetic studies in rats
[5] = test system: PPE-induced acute lung injury in mice; assay: PPE-induced acute lung injury; type: in vivo, mouse; settings: PPE noxa
[6] = test system: HNE-induced acute lung injury in mice; assay: HNE-induced acute lung injury; type: in vivo, mouse; settings: administered 1 h prior to the HNE noxa
[7] = biological target: porcine pancreatic elastase (PPE) (Sus scrofa, UniProt P00772); assay: Serine protease selectivity: PPE; type: biochemical; settings: listed as BAY 85-8501
porcine pancreatic elastase (PPE), sequence (P00772 27-266): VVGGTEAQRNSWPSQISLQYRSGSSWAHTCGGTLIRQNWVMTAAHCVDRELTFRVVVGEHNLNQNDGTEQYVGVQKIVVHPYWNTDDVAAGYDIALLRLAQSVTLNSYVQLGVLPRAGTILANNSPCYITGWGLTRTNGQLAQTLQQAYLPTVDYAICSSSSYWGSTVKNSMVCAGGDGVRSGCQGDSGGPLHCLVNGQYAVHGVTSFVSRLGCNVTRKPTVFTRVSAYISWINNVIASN

human CYP 2C9, sequence (P11712 whole entry): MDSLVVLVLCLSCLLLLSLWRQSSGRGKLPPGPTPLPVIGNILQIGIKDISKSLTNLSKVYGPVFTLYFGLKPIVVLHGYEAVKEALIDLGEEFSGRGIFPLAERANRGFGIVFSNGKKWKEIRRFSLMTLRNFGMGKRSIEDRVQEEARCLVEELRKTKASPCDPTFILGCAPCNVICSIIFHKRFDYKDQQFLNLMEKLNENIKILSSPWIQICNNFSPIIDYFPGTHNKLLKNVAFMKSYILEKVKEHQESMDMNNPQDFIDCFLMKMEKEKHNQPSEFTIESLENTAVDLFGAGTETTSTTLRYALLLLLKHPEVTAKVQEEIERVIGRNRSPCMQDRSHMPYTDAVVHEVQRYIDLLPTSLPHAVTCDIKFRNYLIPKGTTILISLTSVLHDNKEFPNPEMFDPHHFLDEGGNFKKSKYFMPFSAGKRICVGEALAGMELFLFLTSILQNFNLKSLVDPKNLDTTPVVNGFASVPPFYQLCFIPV
human CYP 3A4, sequence (P08684 whole entry): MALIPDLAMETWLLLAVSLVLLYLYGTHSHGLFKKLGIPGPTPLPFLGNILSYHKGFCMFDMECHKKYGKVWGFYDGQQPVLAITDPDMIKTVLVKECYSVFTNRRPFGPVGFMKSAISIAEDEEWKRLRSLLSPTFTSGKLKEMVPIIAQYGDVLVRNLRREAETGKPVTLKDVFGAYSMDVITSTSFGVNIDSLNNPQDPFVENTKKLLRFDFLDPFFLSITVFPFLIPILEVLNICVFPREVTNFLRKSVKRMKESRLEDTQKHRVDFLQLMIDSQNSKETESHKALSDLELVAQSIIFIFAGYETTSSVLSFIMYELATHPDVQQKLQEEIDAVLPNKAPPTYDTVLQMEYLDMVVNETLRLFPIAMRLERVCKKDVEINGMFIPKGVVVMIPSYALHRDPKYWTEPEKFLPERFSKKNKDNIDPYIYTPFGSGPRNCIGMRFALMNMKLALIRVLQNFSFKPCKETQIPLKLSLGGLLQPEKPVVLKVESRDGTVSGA

SMILES: CC1=C(C#N)[C@@H](c2ccc(C#N)cc2S(C)(=N)=O)N(C)C(=O)N1c1cccc(C(F)(F)F)c1 (stereo partly shown) [Compound 30]
solubility [1]: improved solubility
IC50 [2]: > 50 µM
IC50 [3]: > 50 µM

clearance ([4]; rat, in vivo, iv, 0.3 mg kg^−1): 35 mL/min/kg
clearance ([4]; rodents / rats): medium clearance
SMILES: CC1=C(C(=O)OCCO)[C@@H](c2ccc(C#N)cc2)NC(=O)N1c1cccc(C(F)(F)F)c1 [Compound 17]

inhibition toward CYP 2C9 ([2]; up to a concentration of 50 μM): no observable inhibition
inhibition toward CYP 3A4 ([3]; up to a concentration of 50 μM): no observable inhibition
SMILES: CC1=C(C#N)[C@@H](c2ccc(C#N)cc2)N(CC(N)=O)C(=O)N1c1cccc(C(F)(F)F)c1 [Compound 23]

clearance ([4]; rat, in vivo, iv, 0.3 mg kg^−1): 8.33 mL/min/kg
effect on PPE [7]: no inhibitory effect
SMILES: CC1=C(C#N)[C@@H](c2ccc(C#N)cc2S(C)(=O)=O)N(C)C(=O)N1c1cccc(C(F)(F)F)c1 [Compound 29, (4S)-4-[4-Cyano-2-(methylsulfonyl)phenyl]-3,6-dimethyl-2-oxo-1-[3-(trifluoromethyl)phenyl]-1,2,3,4-tetrahydropyrimidine-5-carbonitrile]
primary lung injury [5]: could not prevent
development of lung injury and subsequent inflammation [6]: completely prevented

clearance ([4]; rat, in vivo, iv, 0.3 mg kg^−1): 33.3 mL/min/kg
clearance ([4]; rodents / rats): medium clearance
SMILES: CC(=O)C1=C(C)N(c2cccc(C(F)(F)F)c2)C(=O)N[C@@H]1c1ccc(C#N)nc1 [Compound 20]

— paper PMC4515084 (Chemmedchem, 2015)
